Here are results for one molecule from article PMC10988762, “Inhibition of malaria and babesiosis parasites by putative red blood cell targeting small molecules” (Frontiers in Cellular and Infection Microbiology, 2024).

Series [1] has as its system uninfected RBCs. The experiment in a line: Cellular phosphatidylserine exposure assay (annexin V flow cytometry).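 Further: flow cytometry recording 10,000 events per condition, gated on single cells, with the two experiments using blood from separate donors.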 Conditions: 5x P. falciparum 3D7-IC50, % of RBCs, mean of 2 experiments.
Source text: (§1) We analyzed samples using a volumetric MACSQuant Analyzer Flow Cytometer (Miltenyi Biotec), manually resuspending each row immediately prior to sample uptake. We recorded 10,000 total events for each condition at the instrument-defined low flow rate. We assessed all compounds in 2 separate experiments with blood from different donors. […] All samples were gated for single cell events.
For series [2], the system named is 293T. Set-up: method as in PMID 19662183. The note with it: cellular proliferation ref PMID 19662183; read-out: Micromolar IC50 (293T); cited from earlier work.
For series [3], the system named is K562. Set-up: method as in PMID 19662183. Conditions: cellular proliferation ref PMID 19662183; read-out: Micromolar IC50 (K562); cited from earlier work.
The subject of series [4] is P. falciparum strain Dd2. The experiment in a line: Inhibitor susceptibility dose-response assay (SYBR-Green I), P. falciparum Dd2. It is filed as cell-based, Plasmodium falciparum. Conditions: Plasmodium falciparum, DD2; 72h, ring-stage; n=3 experiments (or 2 where indicated with *); read-out: IC50 (S.D.), P. falciparum-Dd2.
Series [5] has as its system P. falciparum strain 3D7. Nature of the series: Inhibitor susceptibility dose-response assay (SYBR-Green I), P. falciparum 3D7. Format: cell-based, Plasmodium falciparum. Conditions: Plasmodium falciparum, 3D7; 72h, ring-stage; n=3 experiments (or 2 where indicated with *); read-out: IC50 (S.D.), P. falciparum-3D7.
Series [6] relates to BdC9 line of B. divergens. The experiment in a line: Inhibitor susceptibility dose-response assay (SYBR-Green I), B. divergens. It is filed as cell-based, Babesia divergens. The note with it: Babesia divergens; 72h, asynchronous; n=3 experiments (or 2 where indicated with *); read-out: IC50 (S.D.), B. divergens.
Series [7] is described as follows: in vitro. The note with it: human, uninfected RBCs (red blood cells), 1% hematocrit.
Source text: as §1
Series [8] has as its system P. knowlesi YH1 strain. The experiment in a line: microbe, parasite or virus in culture. It is filed as cell-based, Plasmodium knowlesi. Conditions: Plasmodium knowlesi, 48 h, read-out: IC50 (S.D.), P. knowlesi.

As to `Cc1ccc(NC(=O)c2ccc(CN3CC[C@H](N(C)C)C3)c(C(F)(F)F)c2)cc1Nc1nccc(-c2cncnc2)n1` [Bafetinib], the “Phosphatidylserine exposure (%) 24h” value in series [1] (24h) came to 2%. Also, in series [1] (48h), the “Phosphatidylserine exposure (%) 48h” value was 2%. In series [1] (72h), the “Phosphatidylserine exposure (%) 72h” value was 4%. Besides, the IC50 in series [2] was 2.2 nM; in series [3], 1.1 nM; in series [4], 3000 nM; in series [5], 2000 nM; in series [6] it was 12000 nM; in series [8] it was 2000 nM. This molecule also had a hemolysis at 24 h, 5 x P. falciparum 3D7-IC50 in series [7] of 1%. Further, the hemolysis at 48 h, 5 x P. falciparum 3D7-IC50 in series [7] was 6%. In addition, the hemolysis at 72 h, 5 x P. falciparum 3D7-IC50 in series [7] came out at 4%.
